{"source": "patent US9593084B2", "about": "(Parion Sciences, Inc., priority 2012, dated 2017)", "key": {"[1]": {"experiment": "Plasma potassium levels in sheep of the MCC study", "assay_type": "in vivo", "procedure": "(§1) In these studies, adult sheep were restrained and nasally intubated with an endotracheal tube. Aerosolized test articles were administered over 10-15 minutes to sheep. Radiolabeled ^99mTc-sulfur colloid (TSC, 3.1 mg/mL; containing approximately 20 mCi) was then administered at a specified time four or eight hours after test article. The radiolabeled aerosol was administered through the endotracheal tube for about 5 minutes. The sheep were then extubated, and total radioactive counts in the lung were measured every 5 minutes for a 1-hour observation period. The rate of radiolabel clearance from the lung is representative of the MCC rate in the animal. The advantage of this system is that it closely simulates the human lung environment. The model also allows for the collection of simultaneous PK/PD information through plasma and urine sampling over the test period. There are also several techniques to measure the drug concentrations on the airway surface during the MCC measurements. These include the collection of exhaled breath condensates or a filter paper method to obtain ASL via bronchoscopy.\nThe compound of Comparative Example 1 can be seen on page 15 of US 2005/0080093 and as Compound 2 on page 90 of WO 2008/031048, and as Compound 2 on pages 42-43 of WO 2008/031028. […] In order to evaluate this potential, it is beneficial to have MCC activity in vivo and not cause elevation of plasma potassium at the useful dose. One model to assess this is the sheep MCC model described below."}, "[2]": {"system": "human bronchial epithelial (HBE) cells", "experiment": "Airway surface liquid drug clearance and metabolism by human airway epithelium", "assay_type": "in vitro ADME", "procedure": "The disappearance of 33 from the apical surface and airway epithelial metabolism were assessed in human bronchial epithelial (HBE) cells (Table 3). In these experiments 25 μL of a 25 μM solution of ENaC blocker was added to the apical surface of HBE cells grown at an air/liquid interface, and the drug and metabolite concentration in the apical and basolateral compartment was measured over 2 h by UPLC.\nTherefore, the compounds of formula (I) have a longer half-life on mucosal surfaces compared to these know compounds as evidenced by the data shown in Table G. The disappearance of Compound 33 from the apical surface and airway epithelial metabolism were assessed in HBE and compared to Comparative Example 1 (Table H). In these experiments 25 μL of a 25 μM solution of ENaC blocker was added to the apical surface of HBE cells grown at an air/liquid interface, and the drug concentration in the apical and basolateral compartment was measured over 2 h by UPLC."}, "[3]": {"system": "Sheep MCC", "experiment": "Mucociliary clearance (MCC) studies in sheep", "assay_type": "in vivo", "conditions": "for AUC (% CI × h) / Initial Slope (4.0-4.5 h): MCC at 4 h post-dose", "procedure": "The animal model that has been used most often to measure changes in MCC is the sheep model. The effect of compounds for enhancing mucociliary clearance (MCC) can be measured using an in vivo model described by Sabater et al., Journal of Applied Physiology, 1999, pp. 2191-2196, incorporated herein by reference.\nas §1\nThe ovine model described above was used to evaluate the in vivo effects (efficacy/durability) of aerosol-delivered test agent on MCC. Treatments consisting of either 4 mL of test agent or test agent in combination with HS were tested. To determine if combining HS with test agent enhanced MCC, HS was administered immediately following test agent administration. Test solutions were aerosolized using a Raindrop nebulizer at a flowrate of eight liters per minute and connected to a dosimetry system consisting of a solenoid valve and a source of compressed air (20 psi). The deposited dose of drug in sheep lungs after an aerosol administration using the Raindrop nebulizer is estimated to be 8-15% of the dose. Using a Raindrop nebulizer, radiolabeled TSC was administered over approximately 3 minutes either 4 or 8 hours after drug treatment to evaluate efficacy/durability. Radioactive counts were measured in a central region in the right lung at 5 min intervals for one hour with a gamma camera. Three methods of analysis were utilized, 1) initial rate of clearance (slope) over the first 30 min fitted using linear regression 2) area under the curve for % clearance over time over one hour, and 3) the maximum clearance obtained in one hour."}, "[4]": {"conditions": "sheep, solution concentration given beside the dose"}, "[5]": {"conditions": "HBE cells at air/liquid interface, 25 μL of 25 μM apical, mean ± SD"}, "[6]": {"conditions": "HBE cells, 25 μL of 25 μM apical, parent only"}}, "note": "“And” between values parts separate entries of the source, which are not always exact repeats. Equal entries are not always repeated. “Also recorded” adds a separate entry of the source."}
{"smiles": "N=C(NCCCCc1ccc(OC[C@H](N)C(N)=O)cc1)NC(=O)c1nc(Cl)c(N)nc1N", "note": "[Comparative Example 1, (S)-3,5-diamino-6-chloro-N—(N-(4-(4-(2,3-diamino-3-oxopropoxy)phenyl)butyl)carbamimidoyl)pyrazine-2-carboxamide]", "values": [{"measurement": "effect on plasma potassium", "setting": "[1]; sheep of the MCC study, at efficacious dose", "value": "causes a rise in plasma potassium; also recorded: elevations of plasma K"}, {"measurement": "Top Dose in Sheep with no Elevation of Plasma Potassium", "setting": "[1]; [4]", "value": "24 nmol/kg (300 μM)"}, {"measurement": "% of Apical Mass as Metabolites (2 h)", "setting": "[2]; [5]", "value": "83% and 83.0 ± 3.5%"}, {"measurement": "% on Basolateral Side as Metabolites (2 h)", "setting": "[2]; [5]", "value": "94.7 ± 1.0", "unit": "%"}, {"measurement": "% of Initial Apical Mass on Basolateral Side as Parent (2 h)", "setting": "[2]; [6]", "value": "(1% Parent)"}, {"measurement": "% of Initial Drug Mass on Apical Side as Parent (2 h)", "setting": "[2]; [6]", "value": "(8% Parent)"}, {"measurement": "fate on the apical side after 2 h incubation", "setting": "[2]; HBE cells, apical surface, 37° C.", "value": "eliminated from the apical side"}, {"measurement": "ED50", "setting": "[3]; Ovis aries, using slope, AUC and Maximum Clearance, read-out: ED50 in the sheep MCC model", "value": "~0.24", "unit": "µmol/kg"}, {"measurement": "ED50 in the sheep MCC model (solution concentration)", "setting": "[3]; approximate ED50 dose as concentration of dosing solution", "value": "~3000", "unit": "µM"}, {"measurement": "AUC (% CI × h)", "setting": "[3]; sheep, 24 nmol/kg (300 μM)", "value": "6.9 ± 1.0 (3) % CI × h"}, {"measurement": "Initial Slope (4.0-4.5 h)", "setting": "[3]; sheep, 24 nmol/kg (300 μM)", "value": "14.5 ± 1.3 (3)"}, {"measurement": "AUC (% CI × h)", "setting": "[3]; sheep, 240 nmol/kg (3 mM)", "value": "14.1 ± 2.2 (6) % CI × h"}, {"measurement": "Initial Slope (4.0-4.5 h)", "setting": "[3]; sheep, 240 nmol/kg (3 mM)", "value": "32.2 ± 7.3 (6)"}, {"measurement": "MCC Highest Submaximal Dose", "setting": "[3]; [4]", "value": "240 nmol/kg (3 mM)"}, {"measurement": "Therapeutic Ratio (Benefit/Risk)", "setting": "[3]; sheep, top dose without plasma potassium elevation vs MCC highest submaximal dose", "value": 0.1}]}
